Test results from patent US20140262319A1, “ENVIRONMENTALLY FRIENDLY PERMANENT QUATERNARIES OF POLYAMINES AND THEIR USE AS CLAY STABILIZERS AND METHODS FOR MAKING AND USING SAME” (CLEARWATER INTERNATIONAL, LLC, priority 2013, published 2014).

Test system: Fathead Minnow (pimephales promelas)
Assay: Acute toxicity survival test
Type: in vivo
Settings: Flathead Minnows
Description: As a consequence, the “definitive” test gave a more precise LC50 value. LC50 was determined using a log-normal transformation coupled with linear regression between the bracketing no observed effect concentration (NOEC) and lowest observed effect concentration (LOEC). Both the range finding and definitive tests were run on Example 4 and Example 5. Only the ranging finding test was run for TMAC and Example 3.

Compound	toxicity to minnows compared with TMAC
OCC[N+](CCO)(CCO)Cc1ccccc1.[Cl-] [Example 4]	much less toxic than TMAC
CCOS(=O)(=O)[O-].CC[N+](CCO)(CCO)CCO [Example 5]	much less toxic than TMAC
